Among the test systems are CAKI-1 renal; A498 renal; OVCAR-3 ovarian; KM12 colon; SK-MEL-5 melanoma; IGROV1 ovarian; OVCAR-5 ovarian; HT29 colon; NCI-H226 lung.
What all share (assay): NCI-60 cell line screen, 48 h

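Briefly, cells in 96-well plates were exposed to five compound concentrations for 48 h, and endpoints were estimated by linear interpolation. GI50: concentration for 50% inhibition of growth. TGI is the concentration that stops growth completely.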

In the case of `CC(C)N(C)C(=O)C12C3C4C1C1C2C3C41C#N` (centres undefined), the TGI in the assay on CAKI-1 renal, in the assay on A498 renal, in the assay on OVCAR-3 ovarian, in the assay on KM12 colon, in the assay on SK-MEL-5 melanoma and in the assay with IGROV1 ovarian was more than 100 µM in each case. Also, the TGI in the assay on OVCAR-5 ovarian and in the assay with HT29 colon was more than 100 µM in each case.

On to `Nc1cc(N2CCCC2)nc(=O)n1Cc1ccccc1`, for which the TGI with CAKI-1 renal, in the assay with KM12 colon, with SK-MEL-5 melanoma, in the assay on NCI-H226 lung, in the assay with IGROV1 ovarian and in the assay on OVCAR-5 ovarian was more than 100 µM throughout. Further, the TGI in the assay on HT29 colon was more than 100 µM.

As for `Cc1c(-c2ccccc2)c(C#N)c2nnc(C(N)=O)c(N)n12`, the TGI in the assay on CAKI-1 renal, in the assay with A498 renal, in the assay on OVCAR-3 ovarian, in the assay with KM12 colon, with SK-MEL-5 melanoma and with IGROV1 ovarian was more than 100 µM in each case. Also, the TGI in the assay with OVCAR-5 ovarian and with HT29 colon was more than 100 µM in each case.

In the case of `O=C(CNc1ccc(Cl)cc1Cl)NC1C=Cc2ccc(S(=O)(=O)Nc3ccc(Cl)cc3Cl)cc2C1=O` (centres undefined), the TGI in the assay with CAKI-1 renal, in the assay with OVCAR-3 ovarian, with KM12 colon, with NCI-H226 lung, in the assay with IGROV1 ovarian and in the assay with OVCAR-5 ovarian was more than 100 µM in each case. The TGI in the assay on HT29 colon was more than 100 µM.

In the case of `COc1cccc(-c2cc(=O)c3ccc(C)nc3[nH]2)c1`, the TGI in the assay on CAKI-1 renal was more than 81.8 µM; in the assay with A498 renal, 2.34 µM; in the assay on SK-MEL-5 melanoma it was 2.47 µM; in the assay with NCI-H226 lung, 0.291 µM; in the assay on IGROV1 ovarian, more than 95.1 µM; with OVCAR-5 ovarian, more than 100 µM. In the assay on HT29 colon, this compound yielded a TGI of more than 100 µM.

Consider `c1ccc2c(Cc3nnc4sc(SSc5nn6c(Cc7c[nH]c8ccccc78)nnc6s5)nn34)c[nH]c2c1`, for which the TGI in the assay with CAKI-1 renal worked out at 62.6 µM; in the assay on A498 renal, 44.2 µM; in the assay on OVCAR-3 ovarian, 29.2 µM; in the assay with KM12 colon it was 70.3 µM; in the assay with SK-MEL-5 melanoma, 24.2 µM; in the assay with IGROV1 ovarian it was 27.6 µM. In addition, the TGI in the assay on OVCAR-5 ovarian stood at 53.1 µM; with HT29 colon it was 44.4 µM.

In the case of `COc1cc(/C=C2/N=C(c3ccccc3)N(C3=NNC4(C(=O)N3)c3ccccc3-c3ccccc34)NC2=O)ccc1O`, the GI50 in the assay with CAKI-1 renal is 22.4 µg/mL; in the assay on OVCAR-3 ovarian, 24.8 µg/mL; with KM12 colon, 22.7 µg/mL; with SK-MEL-5 melanoma it was 20.3 µg/mL; in the assay with IGROV1 ovarian, 30.4 µg/mL; in the assay on OVCAR-5 ovarian it was 44.6 µg/mL. Also, the GI50 in the assay on HT29 colon is 27.7 µg/mL. The TGI was 75.1 µg/mL with CAKI-1 renal; 53.5 µg/mL in the assay with OVCAR-3 ovarian; 42.9 µg/mL in the assay with KM12 colon; 39.6 µg/mL in the assay with SK-MEL-5 melanoma; 63.3 µg/mL in the assay on IGROV1 ovarian; more than 150 µg/mL with OVCAR-5 ovarian. In the assay on HT29 colon, this compound registered a TGI of 49.1 µg/mL.

For the compound `Clc1ccc(N=c2oc3ccccc3cc2-c2nc3ccccc3[nH]2)c(Cl)c1`, the TGI with CAKI-1 renal, with OVCAR-3 ovarian, in the assay with KM12 colon, in the assay with IGROV1 ovarian, in the assay on OVCAR-5 ovarian and in the assay on HT29 colon was more than 100 µM in each case.

Turning to `COc1cc(S(=O)(=O)Nc2ccc(C3=NNC(c4ccccc4)C3)cc2)ccc1F` (centres undefined), the GI50 is 37.3 µM in the assay on CAKI-1 renal; 50.3 µM in the assay on OVCAR-3 ovarian; 18 µM with KM12 colon; 13.9 µM with SK-MEL-5 melanoma; 21.2 µM with NCI-H226 lung; 93.8 µM in the assay on IGROV1 ovarian. Besides, the GI50 in the assay on OVCAR-5 ovarian is 66.8 µM; in the assay on HT29 colon, 59.1 µM. The TGI in the assay on CAKI-1 renal was more than 100 µM; with OVCAR-3 ovarian, more than 100 µM; with KM12 colon, more than 100 µM; in the assay with SK-MEL-5 melanoma it was 31.6 µM; in the assay with NCI-H226 lung, 61.3 µM; in the assay with IGROV1 ovarian, more than 100 µM. For the same compound, the TGI in the assay on OVCAR-5 ovarian and in the assay with HT29 colon was more than 100 µM throughout.

Consider `NNC(=S)N1CCN(C(=S)NN)CC1`, for which the TGI with CAKI-1 renal, in the assay with A498 renal, in the assay on OVCAR-3 ovarian, in the assay on KM12 colon, with SK-MEL-5 melanoma and in the assay on IGROV1 ovarian was more than 100 µM each time. Further, the TGI in the assay on OVCAR-5 ovarian and in the assay on HT29 colon was more than 100 µM throughout.

With `O=S1(=O)c2ccccc2NC(=S)CC1c1ccccc1` (centres undefined), the TGI in the assay on CAKI-1 renal, in the assay with OVCAR-3 ovarian, with KM12 colon, in the assay with SK-MEL-5 melanoma, in the assay on NCI-H226 lung and in the assay on IGROV1 ovarian was more than 100 µM throughout. In addition, the TGI with OVCAR-5 ovarian and in the assay with HT29 colon was more than 100 µM throughout.

In the case of `CCc1c(C)c(C#N)c(=S)n(C2OC(CO)C(O)C(O)C2O)c1C` (centres undefined), the TGI in the assay with A498 renal, in the assay on OVCAR-3 ovarian, in the assay with KM12 colon, in the assay on SK-MEL-5 melanoma, with NCI-H226 lung and in the assay on IGROV1 ovarian was more than 100 µM in each case. The TGI with OVCAR-5 ovarian and in the assay with HT29 colon was more than 100 µM each time.

In the case of `CC(C)CNC(=O)Cn1c(-c2ccccc2)cc2ccccc21`, the TGI in the assay on CAKI-1 renal, in the assay with OVCAR-3 ovarian, in the assay with KM12 colon, in the assay with SK-MEL-5 melanoma, in the assay with NCI-H226 lung and in the assay with IGROV1 ovarian was more than 100 µM each time. In addition, the TGI in the assay with OVCAR-5 ovarian and in the assay on HT29 colon was more than 100 µM throughout.

On to `COc1cc(C2SCC(=O)N2c2ccc(Oc3ccc(Cl)cc3)c(Cl)c2)cc(OC)c1OC` (centres undefined), for which the TGI in the assay with CAKI-1 renal worked out at 33.6 µM; in the assay with OVCAR-3 ovarian it was 31.1 µM; with KM12 colon, 46 µM; in the assay with SK-MEL-5 melanoma it was 32.1 µM; in the assay on NCI-H226 lung, 31.9 µM; in the assay with IGROV1 ovarian, 30.7 µM. For the same compound, the values for the TGI in the assay with OVCAR-5 ovarian and in the assay with HT29 colon were 55.7 µM and 33.7 µM, respectively.

Consider `CCc1ccc2c(c1)CC1(C2)Cc2cc3c(cc2C1)C(=O)CC3` (centres undefined), for which the TGI is 46.4 µM with A498 renal; 42.8 µM in the assay with OVCAR-3 ovarian; more than 100 µM in the assay on KM12 colon; 16.9 µM in the assay on SK-MEL-5 melanoma; 67 µM in the assay on NCI-H226 lung; more than 100 µM in the assay with IGROV1 ovarian. Moreover, the TGI in the assay on OVCAR-5 ovarian is more than 100 µM; with HT29 colon, 23.9 µM.

For the origin of these results see PubChem BioAssay (NCI).
